Where “and” joins values, the source holds several entries; their conditions need not be identical. Equal values may be shown once. Read-outs that look alike come from different tables or passages of the source. Non-standard residues stand in square brackets, D forms with d. No end group written: not given here. DAP = diaminopimelic acid
Test system: MDCK cells
Type: cell-based, canine
Conditions: for EC50: MDCK monolayers, modified Hill equation fit, read-out: half maximal effect on Isc (EC50 / K1/2)
From the text: Cell culture: MDCK cells were a generous gift of Dr. Lawrence Sullivan (Kansas University Medical Center, Kansas City, Kans.). T84 cells were obtained from Dr. Daniel Devor (University of Pittsburgh, Pittsburgh, Pa.). MDCK and T84 cells were maintained with similar culture procedures. The culture medium was a 1:1 mixture of DMEM and Ham's F-12 (Gibco BRL, Grand Island, N.Y.) supplemented with 5% heat inactivated fetal bovine serum (BioWhittaker, Walkersville, Md.), and 1% penicillin and streptomycin (Gibco BRL). Cells were grown in plastic culture flasks in a humidified environment with 5% CO2 at 37° C. and passaged every 5-7 days. For Ussing chamber experiments, cells were plated on 1.13 cm^2 permeable supports (Snapwell™, Costar®, Cambridge, Mass.) at a density of approximately 1×10^6 cells/well and incubated in DMEM/F-12 supplemented with FBS and antibiotics (changed every other day) for 2-3 weeks prior to being mounted in modified Ussing flux chambers.
To form monolayers, the cells were plated onto the upper surface of a permeable membrane that forms the bottom of a plastic well. Two types were used. One was the Transwell™ insert (Costar®, Cambridge, Mass.) supported in a six-well tissue culture plate and the other type was the Snapwell™ (Costar®, Cambridge, Mass.). During incubation, the medium was replaced at 48-72 hour intervals. Confluent monolayers formed within 72 hours. Experiments were performed on the monolayers 6-9 days after the initial plating. Net fluid secretion responses were optimal after six days.
Solutions: Ringer solution was made fresh daily. The final concentration (in mM) was 120 NaCl, 25 NaHCO3 3.3 KH2HPO4, 0.8 K2HPO4, 1.2 MgCl2, 1.2 CaCl2, (290±2 mOsmol). All components of the Ringer solution were from Sigma (St. Louis, Mo.).
(§1) Epithelial electrical measurements: Transepithelial ion transport was evaluated in a modified Ussing chamber (Model DCV9, Navicyte, San Diego, Calif.). The Ussing chamber's fluid resistance compensation was completed in Ringer solution (see below). For electrical measurements cell monolayers were bathed in Ringer solution maintained at 37° C. and continuously bubbled with 5% CO2:95% O2. The transepithelial membrane potential (Vte) was clamped to zero and the transepithelial short circuit current (Isc), an indicator of net ion transport, was measured continuously with a voltage clamp apparatus (Model 558C, University of Iowa, Department of Bioengineering, Iowa City, Iowa). Data were digitally acquired at 1 Hz with a Macintosh computer (Apple Computer, Cuppertino, Calif.) using Aqknowledge software (ver. 3.2.6, BIOPAC Systems, Santa Barbara, Calif.) with an MP100A-CE interface.
as §1, with “Transepithelial” for “Epithelial electrical measurements: Transepithelial”, “(composition (in mM) was 120 NaCl, 25 NaHCO3 3.3 KH2HPO4, 0.8 K2HPO4, 1.2 MgCl2, 1.2 CaCl2).” for “(see below).”
MDCK cell monolayers (in the presence of 1-EBIO to maximize basolateral membrane K^+ conductance) were exposed on the apical aspect to escelating peptide concentrations. Maximal change in Isc (relative to the Isc prior to peptide exposure) was recorded following each increment in apical peptide concentration. […]

Molecule	Activity profile in MDCK cells (peptide at 500 μM) [at 500 μM μA/cm2]	also measured
CCn1c(=O)[nH]c2ccccc21 [1-EBIO, reference compound]		effect on ISC or gTE (MDCK pretreatment, basal conditions): no effect
AARVGLGITT V (AARVGLGITTV; Modified Homo sapiens) [SEQ ID No. 52]	<1.0	
ARSGSSQTTM T (ARSGSSQTTMT; Modified Homo sapiens) [SEQ ID No. 51]	<1.0	
ARSGSSQTTMTLVTTIGLGVRAPKKKK (ARSGSSQTTMTLVTTIGLGVRAPKKKK; Modified Homo sapiens) [SEQ ID No. 17]	3.6	
GITTVLTMTTQSSGSRAKKKK (GITTVLTMTTQSSGSRAKKKK; Modified Homo sapiens) [SEQ ID No. 44]	<1.0	
GLGITTVLTMTTQSSGSRAKKKK (GLGITTVLTMTTQSSGSRAKKKK; Modified Homo sapiens) [SEQ ID No. 42]	3.3	
ITTVLTMTTQ SSGSRAKKKK (ITTVLTMTTQSSGSRAKKKK; Modified Homo sapiens) [SEQ ID No. 45]	<1.0	
KKKKAARVGLGITTVVTTIGLGVRAA (KKKKAARVGLGITTVVTTIGLGVRAA; Modified Homo sapiens) [SEQ ID No. 28]		Activity profile in MDCK cells (peptide at 100 μM): 17.3 at 100 μM μA/cm2
KKKKAARVGLGITTVLVTTIGLGVRAA [SEQ ID No. 27, KKKKAARVGL GITTVLVTTI GLGVRAA]		EC50 (listed as SEQ ID NO. 27): 50 µM and ~40 µM; EC50: 40 µM
KKKKARSGSSQTTMTLARSGSSQTTMT (KKKKARSGSSQTTMTLARSGSSQTTMT; Modified Homo sapiens) [SEQ ID No. 25]	<1.0	
KKKKARSGSSQTTMTLTMTTQSSGSRA (KKKKARSGSSQTTMTLTMTTQSSGSRA; Modified Homo sapiens) [SEQ ID No. 23]	4.2	
KKKKARSGSSQTTMTLVTTIGLGVRAA (KKKKARSGSSQTTMTLVTTIGLGVRAA; Modified Homo sapiens) [SEQ ID No. 4]		Activity profile in MDCK cells (peptide at 300 μM): 18.7 at 300 μM μA/cm2
KKKKPARVGL GITTVL (KKKKPARVGLGITTVL; Modified Homo sapiens) [SEQ ID No. 40]	1.5	
KKKKPARVGLGITTVLAARVGLGITTV (KKKKPARVGLGITTVLAARVGLGITTV; Modified Homo sapiens) [SEQ ID No. 21]		Activity profile in MDCK cells (peptide at 250 μM): 8.0 at 250 μM μA/cm2
KKKKPARVGLGITTVLPARVGLGITTV (KKKKPARVGLGITTVLPARVGLGITTV; Modified Homo sapiens) [SEQ ID No. 20]	<1.0	
KKKKPARVGL GITTVLT (KKKKPARVGLGITTVLT; Modified Homo sapiens) [SEQ ID No. 39]	1.8	
KKKKPARVGL GITTVLTM (KKKKPARVGLGITTVLTM; Modified Homo sapiens) [SEQ ID No. 38]	6.8	
KKKKPARVGL GITTVLTMT (KKKKPARVGLGITTVLTMT; Modified Homo sapiens) [SEQ ID No. 37]	8.7	
KKKKPARVGL GITTVLTMTT (KKKKPARVGLGITTVLTMTT; Modified Homo sapiens) [SEQ ID No. 36]	8.8	

Molecule	Activity profile in MDCK cells (peptide at 500 μM) [at 500 μM μA/cm2]	also measured
KKKKPARVGLGITTVLTMTTQ (KKKKPARVGLGITTVLTMTTQ; Modified Homo sapiens) [SEQ ID No. 35]	13.1	
KKKKPARVGLGITTVLTMTTQR (KKKKPARVGLGITTVLTMTTQR; Modified Homo sapiens) [SEQ ID No. 14]	20.0	
KKKKPARVGLGITTVLTMTTQS (KKKKPARVGLGITTVLTMTTQS; Modified Homo sapiens) [SEQ ID No. 34]	20.3	
KKKKPARVGLGITTVLTMTTQSSGS (KKKKPARVGLGITTVLTMTTQSSGS; Modified Homo sapiens) [SEQ ID No. 33]	18.4	
KKKKPARVGLGITTVLTMTTQSSGSRAKKKK (KKKKPARVGLGITTVLTMTTQSSGSRAKKKK; Modified Homo sapiens) [SEQ ID No. 47]	5.0	
KKKKPARVGLGITTVLTMTTRS (KKKKPARVGLGITTVLTMTTRS; Modified Homo sapiens) [SEQ ID No. 13]	24.0	
KKKKPARVGL GITTVLTRTT (DAP)S (KKKKPARVGLGITTVLTRTT[DAP]S) [SEQ ID No. 32]	24.0	
KKKKPARVGLGITTVLTRTTQS (KKKKPARVGLGITTVLTRTTQS; Modified Homo sapiens) [SEQ ID No. 15]	<1.0	
KKKKPARVGLGITTVWTMTTQSSGSRA (KKKKPARVGLGITTVWTMTTQSSGSRA; Modified Homo sapiens) [SEQ ID No. 10]	20.0	
KKKKTMTTQSSGSRALARSGSSQTTMT (KKKKTMTTQSSGSRALARSGSSQTTMT; Modified Homo sapiens) [SEQ ID No. 24]	<1.0	
KKKKTMTTQSSGSRALTMTTQSSGSRA (KKKKTMTTQSSGSRALTMTTQSSGSRA; Modified Homo sapiens) [SEQ ID No. 6]	<1.0	
KKKKTMTTQSSGSRALVTTIGLGVRAA (KKKKTMTTQSSGSRALVTTIGLGVRAA; Modified Homo sapiens) [SEQ ID No. 7]	<1.0	
KKKKVTTIGLGVRAPLARSGSSQTTMT [SEQ ID No. 8]	<1.0	
KKKKVTTIGLGVRAPLPARVGLGITTV (KKKKVTTIGLGVRAPLPARVGLGITTV; Modified Homo sapiens) [SEQ ID No. 22]	<1.0	
LGITTVLTMTTQSSGSRAKKKK (LGITTVLTMTTQSSGSRAKKKK; Modified Homo sapiens) [SEQ ID No. 43]	<1.0	
LTMTTQSSGS RAKKKK (LTMTTQSSGSRAKKKK; Modified Homo sapiens) [SEQ ID No. 46]	<1.0	
PARVGLGITT V (PARVGLGITTV; Modified Homo sapiens) [SEQ ID No. 48]	<1.0	
RVGLGITTVLTMTTQSSGSRAKKKK (RVGLGITTVLTMTTQSSGSRAKKKK; Modified Homo sapiens) [SEQ ID No. 41]	6.3	
TMTTQSSGSR A (TMTTQSSGSRA; Modified Homo sapiens) [SEQ ID No. 49]	<1.0	

Source: patent US8163870B2, “Channel forming peptides” (Kansas State University Research Foundation, priority 2000, dated 2012)
